Read-outs that look alike come from different tables or passages of the source.
Legend:
[1] = test system: zebrafish embryos/larvae; assay: Quantification of parent compounds and metabolites in whole zebrafish embryos/larvae homogenate extracts; settings: for Uptake by embryos and larvae (quantified in homogenate extracts): CBZ, PHE 31.25, 85, 250 µM, E-CBZ, HPPH 250 µM
Procedure: In three biological replicates (n = 3; 20 embryos/replicate) and at the two desired developmental stages (24 and 120 hpf), embryos/larvae of each test and control group were pooled and then rinsed three times with cold EMS (4 °C) on a mesh (Cell strainer […] Nylon, Steril Falcon®, Durham, NC, USA). Embryos collected at 24 hpf were not dechorionated, as the focus of this study was on the potential formation of the mammalian active metabolites. Moreover, it was argued that the chorion was more permeable than previously believed and that dechorionation could increase background malformations during gross morphology investigation. Embryos/larvae were then transferred and kept for five min in cryotubes (Cryo.S™, Greiner Bio-One, Frickenhausen, Germany) filled with 500 µL of cold embryo medium (4 °C), before being snap-frozen in liquid nitrogen and kept, for later use, at −80 °C (Figure 9).
The extraction preparation was based on Brox et al. for two developmental stages, 24 and 120 hpf, and performed in triplicate for each test group (n = 3, 20 embryos/replicate) (Figure 9). On the day of the extraction procedure, frozen samples (see Section 4.2.1) were thawed on ice and EMS was removed. A volume of 500 µL of acetonitrile (ACN) (purity ≥99.9%, Merck, Darmstadt, Germany) containing the internal standard lamotrigine, LAMO, (≥98% purity, CAS number: 84057-84-1, Sigma-Aldrich, Merck, Darmstadt, Germany) was then added to each tube to reach a final concentration of 0.39 µM, after dilution in HPLC-grade water. Samples were vortexed (VM3, CAT, Germany) for 5 min at a 2000 rotation/min speed, before being placed on ice and ultrasonicated with an Ultrasonic Processor VCX 130 (Sonics, Newtown, CT, USA) fifteen times for 30 s at an 80% amplitude with pause intervals of 30 s. Supernatants of the samples were then centrifuged (Centrifuge 5424 R, Eppendorf, Hamburg, Germany) twice at 4 °C for 15 min at 15,000× g, snap-frozen and kept for later use at −80 °C, whereas the pellets were discarded.
First, both sample types were processed to reach a final percentage of 30% ACN and a concentration of 0.39 µM of the IS, LAMO. […] Calibration curves and quality controls were prepared in their corresponding reaction mixtures to minimize matrix or extraction process effects. The analytical investigations were performed on an Acquity Ultra Performance Liquid Chromatography (UPLC) with sample manager, binary solvent manager, diode array detector and a triple-quadrupole detector (ACQUITY UPLC-triple quadrupole detector, Waters, Milford, CT, USA) equipped with the Masslynx software (version 4.1). […] Separation was accomplished in 6 min, using a flow rate of 0.5 mL/min. The solvent gradient program was set as follows: 85% A/15% B (0–0.5 min); 85–0% A/15–100% B (0.5–3.3 min); 0% A/100% B (3.3–4.4 min); 0–85% A/100–15% B (4.4–4.5 min); 85% A/15% B (4.5–6 min). The column was set at 40 °C and the injection volume was 10 μL. For the mass spectrometric conditions, the following parameters were used in positive ionization mode: capillarity voltage 3.5 kV, extractor voltage 3 V, cone voltage 35 V, Rf lens 0.1 V. The source temperature was set at 120 °C and the desolation temperature at 450 °C. The desolvation gas flow was fixed at 1000 L/h and cone gas flow at 50 L/h. […] The limit of quantification, linearity, matrix effects and specificity of the method developed for each compound were validated based on the European Medicines Agency (EMA) guidelines for bioanalytical method validation and the study from Kislyuk et al..
For the quantification of the metabolites E-CBZ and HPPH, the samples processed were the microsomal incubation reactions (see Section 4.3.2), the zebrafish culture and stock medium (4.2.1) and the zebrafish embryos/larvae extracts (see Section 4.2.3). Samples from the different experiments were also prepared, as for the parent compounds, to reach a final percentage of 30% ACN and a concentration of 0.39 µM of the IS, LAMO.

[2] = Microsomal incubation with CBZ and PHE, human liver microsomes; assay type: in vitro ADME; settings: human adult liver microsomes; data not shown
Procedure: (§1) Moreover, positive and negative controls were included: pooled human liver microsomes (Gibco™, HMMCPL–PL050B, Thermo Fisher Scientific) and Insect Cell Control Supersomes™ (lot number: PL050 C-B, 456201, Corning Incorporated, Corning, NY, USA), respectively. Based on Oziolor et al., microsomal reactions were initiated after adding the substrate solution at a concentration of 100 µM (see Supplementary Table S1) in a mixture of 100 mM K3PO4 buffer (Corning® Gentest™, NY, USA) of pH 7.4, 5% and 1% of NADPH regenerating system reagents A and B, respectively (Corning, Woburn, MA, USA) and 200 µg/mL of microsomal protein, for a total volume of 500 µL. The reactions were performed at 28.5 ± 0.3 °C until the time point of interest. […]
(§2) For the quantification of the metabolites E-CBZ and HPPH, the samples processed were the microsomal incubation reactions (see Section 4.3.2), the zebrafish culture and stock medium (4.2.1) and the zebrafish embryos/larvae extracts (see Section 4.2.3). […] To quantify the concentrations of E-CBZ and HPPH in these samples, standard curves (in duplicate) of 10 concentrations for E-CBZ (0.5–400 ng/mL; see Supplementary Table S1) and HPPH (2–1600 ng/mL; see Supplementary Table S1) were prepared, as were quality controls. […]

[3] = Microsomal incubation with CBZ and PHE, rabbit liver microsomes; assay type: in vitro ADME; settings: rabbit adult liver microsomes; data not shown
Procedure: as §1, §2

[4] = Microsomal incubation with CBZ and PHE, adult zebrafish liver microsomes; assay type: in vitro ADME, Danio rerio; settings: data not shown
[5] = test system: zebrafish embryos; settings: cited from earlier work; for Embryos affected, combining teratogenic and lethal effects: after three days of exposure

SMILES: NC(=O)N1c2ccccc2C=Cc2ccccc21 [CBZ, carbamazepine]
- E-CBZ in embryo/larva extracts after exposure to CBZ ([1]; 31.25 µM CBZ, 24 and 120 hpf): could not be detected
- Internal concentration, fold lower at 120 hpf than at 24 hpf ([1]; 85 µM): 3.4 fold
- Uptake by embryos and larvae (quantified in homogenate extracts) ([1]; 24 and 120 hpf): taken up
- Decrease of parent compound after 240 min (pilot investigation) [2]: no changes
- Decrease of parent compound after 240 min (pilot investigation) [3]: slight decrease
- Decrease of parent compound after 240 min (pilot investigation) [4]: no changes
- Embryos affected, combining teratogenic and lethal effects ([5]; 31.25 µM): less than 20%
- Embryos affected, combining teratogenic and lethal effects ([5]; 250 µM): around 50%
- Percentage of larvae affected at 72 hpf ([5]; 250 µM): 48.3 ± 11.5%

SMILES: O=C1NC(=O)C(c2ccccc2)(c2ccccc2)N1 [PHE, phenytoin]
- Uptake by embryos and larvae (quantified in homogenate extracts) ([1]; 24 and 120 hpf): taken up
- HPPH in embryo/larva extracts after exposure to PHE ([1]; 24 hpf and 120 hpf, any samples): could not detect
- Internal concentration, times higher at 24 hpf than at 120 hpf ([1]; all concentrations): ~5 times
- Decrease of parent compound after 240 min (pilot investigation) [2]: No decrease
- Decrease of parent compound after 240 min (pilot investigation) [3]: very slight decrease
- Decrease of parent compound after 240 min (pilot investigation) [4]: No decrease
- Embryos affected, combining teratogenic and lethal effects ([5]; 31.25 µM): less than 20%
- Embryos affected, combining teratogenic and lethal effects ([5]; 250 µM): around 50%
- Percentage of larvae affected at 72 hpf ([5]; 250 µM): 45.0 ± 21.8%
